# Source: patent publication US10350272B2, “Calcitonin analogues for treating diseases and disorders” (KeyBioscience AG, priority 2015, dated 2019)
# Columns and labels:
# Type in all cases: in vivo, rat
# [1] = tested on: liver sections from HFD-fed rats; test: Oil-Red-O staining of frozen liver sections; conditions: HFD rats, 2.5 μg/kg daily
# Experimental: At termination of the study of Example 2 the rat livers were embedded using snap freezing in OCT, and then sectioned using a cryomicrotome. Sections were prepared from four groups, KBP-042 in HFD rats, KBP-089 in HFD rats, control HFD rats, and a lean rat comparison.
# The sections were stained using Oil-Red-O staining. […] The lipid accumulation in pair-fed KBP-089 liver exceeded KBP-089 treated rats with 66.5% (p<0.001) and was not significant different from vehicle (0.6711). Statistical test performed was one-way ANOVA with Dunnet's post test for multiple comparisons. **p<0.01, ***p<0.001.
# HFD rats = test: Oral glucose tolerance test (OGTT)
# Description: Animals were challenged with an oral glucose bolus (2 g/kg) at time=0, and dosed with either KBP-042 or saline at t=−30. FIGS. 12A, 12B and 12C show blood glucose levels during acute OGTT, OGTT after 3 weeks, and OGTT after 7 weeks respectively. FIGS. 12D, 12E and 12F show the area under the curve for acute OGTT, OGTT after 3 weeks, and OGTT after 7 weeks respectively. FIGS. 12G, 12H and 12I show insulin levels during acute OGTT, OGTT after 3 weeks, and OGTT after 7 weeks respectively. FIGS. 12J, 12K and 12L show insulin levels during acute OGTT, OGTT after 3 weeks, and OGTT after 7 weeks respectively expressed as area under the curve. n=10 for all groups except vehicle (n=12). Statistical analysis between groups were performed as a One-way ANOVA followed by Tukey's post-hoc test with the following annotations: *P<0.05, **P<0.01, ***P<0.001 vs. HFD-Vehicle. ††P<0.01, †††P<0.001 vs. Pair-fed 5 μg/kg. ‡‡P<0.01, ‡‡‡P<0.001 vs. Pair-fed 10 μg/kg, Data are expressed as mean±SEM.
# [2] = tested on: insulin resistant HFD rats; test: Hyperinsulinemic-euglycemic clamp (glucose infusion rate)
# Experimental: As liver fat is known to decrease insulin sensitivity, the effect of KBP-042 on insulin sensitivity was considered using the glucose infusion rate (GIR) in the hyperinsulinemic-euglycemic clamp. For this study ND rats were compared to insulin resistant HFD rats and 5 μg/kg KBP-042 treated HFD rats.
# The results are shown in FIG. 13: A) Glucose infusion rate (GIR) at steady state during hyperinsulinemic-euglycemic clamp when blood glucose was clamped at basal levels after 21 days treatment; B) Body weight at hyperinsulinemic-euglycemic clamp experiment day after 21 days of treatment. Statistical analysis between groups was performed as a One-way ANOVA followed by Tukey's post-hoc test with the following annotations: *P<0.05, **P<0.01, ***P<0.001. Data are expressed as mean±SEM.
substance,measurement,setting,value
"AcCSNLSTCVLGKLSQELHKLQTYPRTDVGANAP-NH2 (Ac-CSNLSTCVLGKLSQELHKLQTYPRTDVGANAP-NH2; not fully specified (bridges); cysteine pairing not given here) [KBP-042, calcitonin mimetic with Cys1-Cys7 disulphide bridge]",decrease of HFD-induced lipid accumulation in liver compared to vehicle (Oil-Red-O),[1],78.3%
same,blood glucose,"HFD rats; 30 minutes after subcutaneous administration (t=0), acute",hyperglycemic effect
same,glucose tAUC,"HFD rats; OGTT after 3 weeks, 2.5 μg/kg, 5 μg/kg and 10 μg/kg",significantly lowered
same,glucose tolerance (tAUC),"HFD rats; OGTT at week 7, 5 μg/kg and 10 μg/kg",improved glucose tolerance
same,glucose total area under the curve (tAUC),"HFD rats; acute OGTT, 10 μg/kg",significantly increased
same,glucose tolerance in OGTT,"HFD rats; acute dose, 10 μg/kg, compared to HFD-Vehicle",slightly impaired glucose tolerance
same,insulin levels during OGTT,"HFD rats; acute, first 60 minutes after glucose administration",reduced
same,insulin levels during OGTT,"HFD rats; after 3 weeks, all treatment groups except 0.625 μg/kg",lowered
same,insulin levels during OGTT,"HFD rats; week 7, three highest dose groups, first 60 minutes after glucose administration",drastically reduced
same,body weight reduction,"[2]; 5 μg/kg, 21 days, HFD rats",~18%
same,increase in glucose infusion rate (GIR) compared to HFD-Vehicle,"[2]; 5 μg/kg, 21 days, p<0.001",82%
same,increase in GIR compared to ND,"[2]; 5 μg/kg, 21 days, p<0.05",27%
same,body weight compared to ND rats,"[2]; 5 μg/kg, end of study (21 days)",not significantly different
same,whole-body insulin sensitivity,[2]; hyperinsulinemic-euglycemic clamp,improved
